Data on 27 molecules can be found in patent US20240317721A1, “PYRAZOLYL DERIVATIVES AS INHIBITORS OF THE KRAS MUTANT PROTEIN” (NOVARTIS AG, priority 2021, published 2024).

The test addresses KRasG12C (M1-K169, biotinylated on the N-terminus) (Homo sapiens (Human), UniProt P01116, G12C). Description: Covalent competition assay: scintillation proximity assay (SPA) quantifying covalent modification of KRASG12C. Type of test: binding. Conditions: competition with radiolabeled covalent probe (Compound B/Compound A), 2 hours incubation, 10 nM KRasG12C. The procedure, abridged:
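Test compounds compete with a radiolabeled covalent probe for modification of N-terminally biotinylated KRasG12C(M1-K169):GDP, final 10 nM protein, 25 nM radio-ligand, 475 nM unlabelled ligand, 2 h with agitation in 20 mM Tris-HCl pH 7.5, 150 mM NaCl, 0.1 mM MgCl2, 0.01% Tween-20.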
By IC50 is commonly meant the midpoint of a concentration-inhibition curve. With `C=CC(=O)N1CC2(CC(n3nc(N4CCN(CC5(O)CC5)CC45CCC5)c(-c4c(Cl)c(C)cc5[nH]ncc45)c3C)C2)C1` (single isomer, unassigned) [Example 154a, 1-(6-(4-(5-chloro-6-methyl-1H-indazol-4-yl)-3-(8-((1-hydroxycyclopropyl)methyl)-5,8-diazaspiro[3.5]nonan-5-yl)-5-methyl-1H-pyrazol-1-yl)-2-azaspiro[3.3]heptan-2-yl)prop-2-en-1-one], the concentration for half-maximal inhibition (IC50) was greater than 5000 nM.

As for `C=CC(=O)N1CC2(CC(n3nc(N4CCN(C(C)=O)CC4)c(-c4c(C)c(C)cc5[nH]ncc45)c3C)C2)C1` (single isomer, unassigned) [Example 2b, 1-(6-(3-(4-acetylpiperazin-1-yl)-4-(5,6-dimethyl-1H-indazol-4-yl)-5-methyl-1H-pyrazol-1-yl)-2-azaspiro[3.3]heptan-2-yl)prop-2-en-1-one], the concentration for half-maximal inhibition (IC50) was 3200 nM.

Take `C=CC(=O)N1CC2(CC(n3nc(N4CCC5(CN(C)CCO5)CC4(C)C)c(-c4c(Cl)c(C)cc5[nH]ncc45)c3C)C2)C1` (single isomer, unassigned) [Example 208b, 1-(6-(4-(5-chloro-6-methyl-1H-indazol-4-yl)-5-methyl-3-(4,8,8-trimethyl-1-oxa-4,9-diazaspiro[5.5]undecan-9-yl)-1H-pyrazol-1-yl)-2-azaspiro[3.3]heptan-2-yl)prop-2-en-1-one]: the IC50 was 3800 nM.

With `C=CC(=O)N1CC2(CC(n3nc(N4CCCCC4(C)C)c(-c4c(Cl)c(C)cc5[nH]ncc45)c3C)C2)C1` (single isomer, unassigned) [Example 103b, 1-(6-(4-(5-chloro-6-methyl-1H-indazol-4-yl)-3-(2,2-dimethylpiperidin-1-yl)-5-methyl-1H-pyrazol-1-yl)-2-azaspiro[3.3]heptan-2-yl)prop-2-en-1-one], the IC50 is 315 nM.

In the case of `C=CC(=O)N1CC2(CC(n3nc(N4CCN(C(C)=O)CC4(C)C)c(-c4cc(O)cc5ccccc45)c3C)C2)C1` [Example 77, 1-(6-(3-(4-acetyl-2,2-dimethylpiperazin-1-yl)-4-(3-hydroxynaphthalen-1-yl)-5-methyl-1H-pyrazol-1-yl)-2-azaspiro[3.3]heptan-2-yl)prop-2-en-1-one], the 50% inhibitory concentration (IC50) was found to be 1200 nM.

Regarding `C=CC(=O)N1CC2(CC(n3nc(N4CCN(C5COC5)CC4(C)C)c(-c4c(Cl)c(C)cc5[nH]ncc45)c3C)C2)C1` (single isomer, unassigned) [Example 67a, 1-(6-(4-(5-chloro-6-methyl-1H-indazol-4-yl)-3-(2,2-dimethyl-4-(oxetan-3-yl)piperazin-1-yl)-5-methyl-1H-pyrazol-1-yl)-2-azaspiro[3.3]heptan-2-yl)prop-2-en-1-one], the IC50 is greater than 50000 nM.

With `C=CC(=O)N1CC2(CC(n3nc(N4CCN(C[C@@H]5COCCO5)C[C@]4(C)COC)c(-c4c(Cl)c(Cl)cc5[nH]ncc45)c3C)C2)C1` (single isomer, unassigned) [Example 182a], the IC50 turned out to be 1400 nM.

For the molecule `C=CC(=O)N1CC2(CC(n3nc(N4CC[C@@H](CN5CCOCC5)CC4(C)C)c(-c4c(C)c(Cl)cc5[nH]ncc45)c3C)C2)C1` (single isomer, unassigned) [Example 233b], the half-inhibitory concentration (IC50) stood at 20 nM.

For the molecule `C=CC(=O)N1CC2(CC(n3nc(N4CC5(CCOC5)C4)c(-c4c(Cl)c(Cl)cc5[nH]ncc45)c3C)C2)C1` (single isomer, unassigned) [Example 108b, 1-(6-(4-(5,6-dichloro-1H-indazol-4-yl)-5-methyl-3-(6-oxa-2-azaspiro[3.4]octan-2-yl)-1H-pyrazol-1-yl)-2-azaspiro[3.3]heptan-2-yl)prop-2-en-1-one], the IC50 came out at 576 nM.

As to `C=CC(=O)N1CC2(CC(n3nc(N4CCn5nccc5C4)c(-c4c(Cl)c(C)cc5[nH]ncc45)c3C)C2)C1` (single isomer, unassigned) [Example 10b, 1-(6-(4-(5-Chloro-6-methyl-1H-indazol-4-yl)-3-(6,7-dihydropyrazolo[1,5-a]pyrazin-5(4H)-yl)-5-methyl-1H-pyrazol-1-yl)-2-azaspiro[3.3]heptan-2-yl)prop-2-en-1-one], the IC50 is 105 nM.

Consider `C=CC(=O)N1CC2(CC(n3nc(N4CC[C@@H](CN5CCC6COCC65)CC4(C)C)c(-c4c(C)c(Cl)cc5[nH]ncc45)c3C)C2)C1` (single isomer, unassigned) [Example 306a, 1-(6-(4-(6-chloro-5-methyl-1H-indazol-4-yl)-3-((R)-4-(((3aR*,6aR*)-hexahydro-1H-furo[3,4-b]pyrrol-1-yl)methyl)-2,2-dimethylpiperidin-1-yl)-5-methyl-1H-pyrazol-1-yl)-2-azaspiro[3.3]heptan-2-yl)prop-2-en-1-one], for which the IC50 is greater than 5000 nM.

For `C=CC(=O)N1CC2(CC(n3nc(N4CC[C@@H](CN5CCOC[C@@H]5CO)CC4(C)C)c(-c4c(Cl)c(Cl)cc5[nH]ncc45)c3C)C2)C1` (single isomer, unassigned) [Example 303a], the concentration for half-maximal inhibition (IC50) was found to be 5000 nM.

Turning to `C=CC(=O)N1CC2(CC(n3nc(N4CCn5nccc5C4C)c(-c4c(Cl)c(C)cc5[nH]ncc45)c3C)C2)C1` (single isomer, unassigned) [Example 41a, 1-(6-(4-(5-chloro-6-methyl-1H-indazol-4-yl)-5-methyl-3-(4-methyl-6,7-dihydropyrazolo[1,5-a]pyrazin-5(4H)-yl)-1H-pyrazol-1-yl)-2-azaspiro[3.3]heptan-2-yl)prop-2-en-1-one], the IC50 is 41900 nM.

As to `C=CC(=O)N1CC2(CC(n3nc(N4CCN(CCN5CCOCC5=O)C[C@]4(C)CC)c(-c4c(Cl)c(C)cc5[nH]ncc45)c3C)C2)C1` (single isomer, unassigned) [Example 177a], the 50% inhibitory concentration (IC50) is 8 nM.

With `C=CC(=O)N1CC2(CC(n3nc(N4CC[C@@H](CN5CC6(C5)CN(C)C(=O)O6)CC4(C)C)c(-c4c(Cl)c(Cl)cc5[nH]ncc45)c3C)C2)C1` (single isomer, unassigned) [Example 284b], the IC50 was 8 nM.

As to `C=CC(=O)N1CC2(CC(n3nc(N4CCN(C[C@@H]5COCCO5)C[C@]4(C)CC)c(-c4c(Cl)c(C)cc5c4cnn5C)c3C)C2)C1` (single isomer, unassigned) [Example 109a], the IC50 was determined as 334 nM.

As to `C=CC(=O)N1CC2(CC(n3nc(N4CC[C@@H](CN(C)CC(=O)N5CCCC5)CC4(C)C)c(-c4c(Cl)c(Cl)cc5[nH]ncc45)c3C)C2)C1` (single isomer, unassigned) [Example 252b], the 50% inhibitory concentration (IC50) is 6 nM.

For the molecule `C=CC(=O)N1CC2(CC(n3nc(N4CCC(=O)CC45CCC5)c(-c4c(Cl)c(C)cc5[nH]ncc45)c3C)C2)C1` [Example 47, 5-(1-(2-acryloyl-2-azaspiro[3.3]heptan-6-yl)-4-(5-chloro-6-methyl-1H-indazol-4-yl)-5-methyl-1H-pyrazol-3-yl)-5-azaspiro[3.5]nonan-8-one], the concentration for half-maximal inhibition (IC50) was greater than 5000 nM.

`C=CC(=O)N1CC2(CC(n3nc(N4CCN(Cc5cn(C)nn5)C[C@]4(C)CC)c(-c4c(Cl)c(C)cc5[nH]ncc45)c3C)C2)C1` (single isomer, unassigned) [Example 188b]: the IC50 was 6 nM.

On to `C=CC(=O)N1CC2(CC(n3nc(N4CCC5C(CC(=O)N5C)C4)c(-c4c(Cl)c(C)cc5[nH]ncc45)c3C)C2)C1` (single isomer, unassigned) [Example 39b, 5-(1-(2-acryloyl-2-azaspiro[3.3]heptan-6-yl)-4-(5-chloro-6-methyl-1H-indazol-4-yl)-5-methyl-1H-pyrazol-3-yl)-1-methyloctahydro-2H-pyrrolo[3,2-c]pyridin-2-one], for which the 50% inhibitory concentration (IC50) amounted to 75 nM.

On to `C=CC(=O)N1CC2(CC(n3nc(N4CCN(C5CCCOC5)C[C@]4(C)CC)c(-c4c(Cl)c(C)cc5[nH]ncc45)c3C)C2)C1` (single isomer, unassigned) [Example 157d], for which the half-maximal inhibitory concentration (IC50) worked out at 7 nM.

For the molecule `C=CC(=O)N1CC2(CC(n3nc(N4CCN(CCOC(F)F)CC45CCC5)c(-c4c(Cl)c(C)cc5[nH]ncc45)c3C)C2)C1` (single isomer, unassigned) [Example 183b, 1-(6-(4-(5-chloro-6-methyl-1H-indazol-4-yl)-3-(8-(2-(difluoromethoxy)ethyl)-5,8-diazaspiro[3.5]nonan-5-yl)-5-methyl-1H-pyrazol-1-yl)-2-azaspiro[3.3]heptan-2-yl)prop-2-en-1-one], the IC50 stood at 27 nM.

As to `C=CC(=O)N1CC2(CC(n3nc(N4CCN(CC(C)(C)O)C[C@@]4(C)C(F)F)c(-c4c(Cl)c(C)cc5[nH]ncc45)c3C)C2)C1` (single isomer, unassigned) [Example 166b], the IC50 was 51 nM.

Consider `C=CC(=O)N1CC2(CC(n3nc(N4CCN(C5COC5)CC45CCC5)c(-c4c(Cl)c(Cl)cc5[nH]ncc45)c3C)C2)C1` (single isomer, unassigned) [Example 72a], for which the 50% inhibitory concentration (IC50) stood at 3100 nM.

On to `C=CC(=O)N1CC2(CC(n3nc(N4CC[C@@H](CN5CCN(C6COC6)CC5)CC4(C)C)c(-c4c(Cl)c(C)cc5[nH]ncc45)c3C)C2)C1` (single isomer, unassigned) [Example 246b], for which the IC50 came to 15 nM.

For the molecule `C=CC(=O)N1CC2(CC(n3nc(N4CCC(N5CCOCC5)CC4(C)C)c(-c4c(Cl)c(C)cc5[nH]ncc45)c3C)C2)C1` (single isomer, unassigned) [Example 34b, 1-(6-(4-(5-chloro-6-methyl-1H-indazol-4-yl)-3-(2,2-dimethyl-4-morpholinopiperidin-1-yl)-5-methyl-1H-pyrazol-1-yl)-2-azaspiro[3.3]heptan-2-yl)prop-2-en-1-one], the half-maximal inhibitory concentration (IC50) came out at 13 nM.

`C=CC(=O)N1CC2(CC(n3nc(N4CCC(N(C)C5COC5)CC45CCC5)c(-c4c(Cl)c(C)cc5[nH]nc(N)c45)c3C)C2)C1` (single isomer, unassigned) [Example 116a, 1-(6-(4-(3-amino-5-chloro-6-methyl-1H-indazol-4-yl)-5-methyl-3-(8-(methyl(oxetan-3-yl)amino)-5-azaspiro[3.5]nonan-5-yl)-1H-pyrazol-1-yl)-2-azaspiro[3.3]heptan-2-yl)prop-2-en-1-one]: the concentration for half-maximal inhibition (IC50) was determined as 205 nM.
